Measurements reported in patent publication US7452887B2, “Quinoline- and isoquinoline-based compounds exhibiting ATP-utilizing enzyme inhibitory activity, and compositions, and uses thereof” (Amphora Discovery Corporation, priority 2004, dated 2008).

What follows are compounds tested against T1, FLT-3 (Homo sapiens, UniProt P36888) (assay: HTS ATP-utilizing enzyme assay, off-chip mobility-shift (Caliper HTS 250)). Details: test compound 10 μM, kinase listed = active (greater than six-sigma from the mean activity of inactive compounds).
T1 sequence (P36888 27-993): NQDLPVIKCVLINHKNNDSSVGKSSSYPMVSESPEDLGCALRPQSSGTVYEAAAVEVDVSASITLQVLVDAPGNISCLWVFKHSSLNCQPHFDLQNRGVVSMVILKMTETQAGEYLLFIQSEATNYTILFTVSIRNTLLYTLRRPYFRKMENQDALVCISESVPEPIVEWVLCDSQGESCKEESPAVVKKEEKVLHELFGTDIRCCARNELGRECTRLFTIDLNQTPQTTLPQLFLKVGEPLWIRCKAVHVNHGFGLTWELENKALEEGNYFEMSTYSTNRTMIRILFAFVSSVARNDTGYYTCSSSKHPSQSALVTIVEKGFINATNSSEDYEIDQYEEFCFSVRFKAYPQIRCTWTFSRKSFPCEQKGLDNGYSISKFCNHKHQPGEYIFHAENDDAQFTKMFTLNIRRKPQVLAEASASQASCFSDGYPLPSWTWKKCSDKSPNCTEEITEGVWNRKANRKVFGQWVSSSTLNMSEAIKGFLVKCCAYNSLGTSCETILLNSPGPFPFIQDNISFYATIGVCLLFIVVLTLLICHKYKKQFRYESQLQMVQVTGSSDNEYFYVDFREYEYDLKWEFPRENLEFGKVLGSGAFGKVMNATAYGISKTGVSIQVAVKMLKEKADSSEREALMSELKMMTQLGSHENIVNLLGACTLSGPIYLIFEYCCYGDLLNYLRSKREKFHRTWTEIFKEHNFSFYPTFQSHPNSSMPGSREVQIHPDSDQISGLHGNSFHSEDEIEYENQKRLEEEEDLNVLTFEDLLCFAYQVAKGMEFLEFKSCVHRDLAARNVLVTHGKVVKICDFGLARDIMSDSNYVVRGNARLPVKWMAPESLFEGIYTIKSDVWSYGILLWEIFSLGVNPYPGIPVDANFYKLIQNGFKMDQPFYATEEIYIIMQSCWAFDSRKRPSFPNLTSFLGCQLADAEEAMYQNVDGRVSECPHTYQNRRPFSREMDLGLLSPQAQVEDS
Format: biochemical
Summary of the method: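 Steps: compound added at 10 μM final; enzyme then peptide substrate added in HEPES pH 7.5, Triton X-100, BSA buffer; incubation 2.5 hrs at 20° C. to 22° C.; EDTA quench; microfluidic separation of substrate and phosphoproduct. DMSO wells set 0% inhibition, EDTA wells 100%.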

Activity, FLT-3:
CN1CCN(c2ccc(Nc3ccnc4ccc(-c5ccc(O)cc5)cc34)cc2)CC1 [4-(4-(4-(4-methylpiperazin-1-yl)phenylamino)quinolin-6-yl)phenol]
COc1ccc(-c2ccc3nccc(Nc4ccc(N5CCNCC5)cc4)c3c2)cc1 [6-(4-methoxyphenyl)-N-(4-(piperazin-1-yl)phenyl)quinolin-4-amine]
COc1ccc(-c2ccc3nccc(N(C)c4ccc(N5CCN(C)CC5)cc4)c3c2)cc1 [6-(4-methoxyphenyl)-N-methyl-N-(4-(4-methylpiperazin-1-yl)phenyl)quinolin-4-amine]
c1ccc(-c2ccc3nccc(Nc4ccc(N5CCNCC5)cc4)c3c2)cc1 [6-phenyl-N-(4-(piperazin-1-yl)phenyl)quinolin-4-amine]
CN1CCN(c2ccc(Nc3ccnc4ccc(-c5ccncc5)cc34)cc2)CC1 [N-(4-(4-methylpiperazin-1-yl)phenyl)-6-(pyridin-4-yl)quinolin-4-amine]
